Measurements reported in patent US11447469B2, “Hetero ring-fused phenyl compounds for inhibiting TNIK and medical uses thereof” (Korea Research Institute of Chemical Technology, priority 2018, dated 2022).
pIC50: −log10 of the molar value.

Key:
TNIK [1] = biological target: T1, TNIK (Homo sapiens (Human), UniProt Q9UKE5); test: In vitro TNIK kinase assay using ADP-Glo Kinase Assay system; assay type: biochemical; details: 100 μM ATP, MBP substrate; for pIC50: 37° C. 30 min; for inhibition at 1 µM: compound at 1 μM
T1 sequence (Q9UKE5 whole entry): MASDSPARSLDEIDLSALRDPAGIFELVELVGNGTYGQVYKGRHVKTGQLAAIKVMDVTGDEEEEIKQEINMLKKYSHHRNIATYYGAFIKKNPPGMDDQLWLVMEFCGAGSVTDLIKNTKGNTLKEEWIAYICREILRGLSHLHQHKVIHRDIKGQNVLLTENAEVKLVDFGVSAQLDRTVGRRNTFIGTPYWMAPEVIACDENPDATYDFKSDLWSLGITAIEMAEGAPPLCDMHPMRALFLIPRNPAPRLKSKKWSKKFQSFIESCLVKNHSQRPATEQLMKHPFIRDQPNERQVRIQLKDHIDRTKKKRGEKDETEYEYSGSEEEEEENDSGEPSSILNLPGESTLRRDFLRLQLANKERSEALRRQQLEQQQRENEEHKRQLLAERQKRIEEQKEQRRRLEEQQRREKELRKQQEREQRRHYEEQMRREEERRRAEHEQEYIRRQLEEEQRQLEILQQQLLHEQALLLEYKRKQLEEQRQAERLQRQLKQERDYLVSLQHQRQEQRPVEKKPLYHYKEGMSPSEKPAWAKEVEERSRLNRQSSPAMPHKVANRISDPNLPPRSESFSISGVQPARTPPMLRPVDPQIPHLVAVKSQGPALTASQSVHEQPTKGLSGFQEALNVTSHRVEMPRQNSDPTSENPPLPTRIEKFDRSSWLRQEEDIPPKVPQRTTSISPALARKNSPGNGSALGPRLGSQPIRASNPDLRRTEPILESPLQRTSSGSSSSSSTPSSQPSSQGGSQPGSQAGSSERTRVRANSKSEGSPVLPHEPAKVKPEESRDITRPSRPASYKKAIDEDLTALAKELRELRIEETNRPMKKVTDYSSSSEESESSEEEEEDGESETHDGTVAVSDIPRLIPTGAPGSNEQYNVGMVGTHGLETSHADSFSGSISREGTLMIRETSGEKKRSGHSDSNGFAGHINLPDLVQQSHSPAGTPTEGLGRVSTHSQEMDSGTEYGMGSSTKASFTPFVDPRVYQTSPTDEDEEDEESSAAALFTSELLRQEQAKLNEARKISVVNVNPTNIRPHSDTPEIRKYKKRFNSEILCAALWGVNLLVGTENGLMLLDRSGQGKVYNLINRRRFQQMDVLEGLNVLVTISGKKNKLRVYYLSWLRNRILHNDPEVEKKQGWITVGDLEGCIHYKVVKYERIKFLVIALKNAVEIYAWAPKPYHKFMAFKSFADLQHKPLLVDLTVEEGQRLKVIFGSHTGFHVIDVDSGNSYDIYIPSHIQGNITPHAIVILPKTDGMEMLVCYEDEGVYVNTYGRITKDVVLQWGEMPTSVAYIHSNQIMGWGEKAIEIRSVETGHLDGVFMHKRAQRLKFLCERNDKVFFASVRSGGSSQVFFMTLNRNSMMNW
Method: 2. Efficacy of Inhibiting TNIK Activity, In Vitro TNIK Kinase Assay Using ADP-Glo™ Kinase Assay System
The inhibitory properties of compounds were evaluated with TNIK kinase enzyme system and luminescent ADP-Glo ? Kinase Assay from Promega Corporation according to the manufacturer's protocol. The tested compounds were incubated with TNIK kinases. Reactions were performed in 10 μl kinase buffer supplemented with reaction mixture containing 2 μl ATP, 2 μl MBP protein and 2 μl TNIK at 37° C. for 30 min. After kinase reaction, 5 μl reaction mixtures were transferred to 384 well assay plate (Greiner, solid white low-binding plates). Next, 5 μl of ADP-Glo Reagent was added to each well and incubated at 37° C. for 30 min. After 45 min, 10 μl Kinase Detection Reagent was added to each well and luminescence signal was detected with the SpectraMax M5e Microplate Reader (Molecular Devices, Menlo Park, Calif.) after 30 min at 37° C. incubation. The IC50 values were calculated using GraphPad Prism software (GraphPad Software Inc., La Jolla, Calif., USA) to determine kit performance. To the cut-off assay, the inhibitory activity of the compounds against TNIK kinase was expressed as the percentage of the kinase inhibitory activity for an indicated concentration of inhibitor. The IC s of the compounds against TNIK kinase values were calculated a log-concentration-response curve fitted with a four-parameter logistic equation and expressed dose-response curve for % of inhibitory activity versus log of the compound concentration.

SW620 cells = test: Cell viability assay (CCK-8) using SW620 cell; assay type: cell-based; details: Homo sapiens, SW-620, 48 h exposure
Method: (§1) 3. Efficacy of Inhibiting Cancer Cells Using Colon Cancer Cell Lines
(§2) The human colon cancer cell line SW480 (Catalog No. CCL-228) and SW620 (Catalog No. CCL-227) were obtained from the American Type Culture Collection (ATCC), and maintained in DMEM (Thermo Fisher Scientific Inc., Waltham, Mass., USA) supplemented with 10% fetal bovine serum (FBS) (Thermo Fisher Scientific Inc., Waltham, Mass.), 100 U/ml penicillin, and 100 µg/ml streptomycin (Gibco, Gaithersburg, Md.). Cells were grown at 37° C. in 5% CO2 for confluence.
(§3) Cell viability was measured using the Cell Counting Kit-8 (Dojindo Molecular Technologies). SW480 and SW620 cells (2.5×10^4 cells/well) were seeded in 96-well plates and incubated for 24 h. After incubation, the cells were exposed to serially diluted compounds (0.1, 0.3, 1, 3, 10 and 30 µM) in 100 μl phenol free DMEM medium containing 0.1% FBS. After 48 h, CCK-8 reagent was added at 10 μl per well and incubated for 1 h at 37° C. Optical density was measured at 450 nm using a microplate reader (Bio-Rad Laboratories, Hercules, Calif.). The IC50 values were calculated using GraphPad Prism software (GraphPad Software Inc., La Jolla, Calif., USA) to determine kit performance. Experiments were performed in triplicate.

SW480 cells = test: Cell viability assay (CCK-8) using SW480 cell; assay type: cell-based; details: Homo sapiens, 48 h exposure
Method: as §1, §2, §3

TNIK [2] = biological target: T1, TNIK; test: In vitro TNIK kinase assay using qPCR (competition binding with liganded affinity beads); details: compound at 1 μM; kinase in eluate measured by qPCR
Method: 1. Efficacy of Inhibiting TNIK Activity, In Vitro TNIK Kinase Assay Using qPCR
For most assays, kinase-tagged T7 phage strains were grown in parallel in 24-well blocks in an E. coli host derived from the BL21 strain. E. coli were grown to log-phase and infected with T7 phage from a frozen stock (multiplicity of infection=0.4) and incubated with shaking at 32° C. until (90-150 minutes). The lysates were centrifuged (6,000×g) and filtered (0.2 μm) to remove cell debris. The remaining kinases were produced in HEK-293 cells and subsequently tagged with DNA for qPCR detection. Streptavidin-coated magnetic beads were treated with biotinylated small molecule ligands for 30 minutes at room temperature to generate affinity resins for kinase assays. The liganded beads were blocked with excess biotin and washed with blocking buffer (SeaBlock (Pierce), 1% BSA, 0.05% Tween 20, 1 mM DTT) to remove unbound ligand and to reduce non-specific phage binding. Binding reactions were assembled by combining kinases, liganded affinity beads, and test compounds in 1× binding buffer (20% SeaBlock, 0.17×PBS, 0.05% Tween 20, 6 mM DTT). Test compounds were prepared as 40× stocks in 100% DMSO and directly diluted into the assay. All reactions were performed in polypropylene 384-well plates in a final volume of 0.04 ml.
The assay plates were incubated at room temperature with shaking for 1 hour and the affinity beads were washed with wash buffer (1×PBS, 0.05% Tween 20). The beads were then re-suspended in elution buffer (1×PBS, 0.05% Tween 20, 0.5 μM non-biotinylated affinity ligand) and incubated at room temperature with shaking for 30 minutes. The kinase concentration in the eluates was measured by qPCR.

| Structure (SMILES) | pIC50 (TNIK [1]) | inhibition at 1 µM (TNIK [1]) | IC50 (SW620 cells) | IC50 (SW480 cells) | activity at 1 µM (TNIK [2]) |
| --- | --- | --- | --- | --- | --- |
| O=C1CCc2cc(Nc3cc(-c4ccc(O)cc4)[nH]n3)ccc2N1 [Compound 6, 6-((5-(4-hydroxyphenyl)-1H-pyrazol-3-yl)amino)-3,4-dihydroquinolin-2(1H)-one] | 7.21 | 96% |  |  |  |
| COc1ccc(-c2cc(Nc3ccc4[nH]ncc4c3)n[nH]2)cc1 [Compound 2, N-(5-(4-methoxyphenyl)-1H-pyrazol-3-yl)-1H-indazol-5-amine] | 7.03 | 99% | 1.2 µM | 4.5 µM | 21% |
| c1cnn(-c2ccc(-c3cc(Nc4ccc5[nH]ncc5c4)n[nH]3)cc2)c1 [Compound 10, N-(5-(4-(1H-pyrazol-1-yl)phenyl)-1H-pyrazol-3-yl)-1H-indazol-5-amine] | 7.26 | 99% |  |  |  |
| COc1ccc(-c2cc(Nc3ccc4cn[nH]c4c3)n[nH]2)cc1 [Compound 4, N-(5-(4-methoxyphenyl)-1H-pyrazol-3-yl)-1H-indazol-6-amine] |  |  |  |  | 8% |
| COc1ccc(-c2cc(Nc3ccc4[nH]ccc4c3)n[nH]2)cc1 [Compound 1, N-(5-(4-methoxyphenyl)-1H-pyrazol-3-yl)-1H-indol-5-amine] |  |  |  |  | 16% |
| O=C1COc2cc(Nc3cc(-c4ccc(O)cc4)[nH]n3)ccc2N1 [Compound 14, 7-((5-(4-hydroxyphenyl)-1H-pyrazol-3-yl)amino)-2H-benzo[b][1,4]oxazin-3(4H)-one] |  | 97% |  |  |  |
| Cc1nc2cc(Nc3cc(-c4ccc(-n5cccn5)cc4)[nH]n3)ccc2[nH]1 [Compound 18, N-(5-(4-(1H-pyrazol-1-yl)phenyl)-1H-pyrazol-3-yl)-2-methyl-1H-benzo[d]imidazol-5-amine] | 7.02 | 99% | 3.4 µM | 21 µM |  |
| COc1ccc(-c2cc(Nc3ccc4[nH]c(=O)[nH]c4c3)n[nH]2)cc1 [Compound 3, 5-((5-(4-methoxyphenyl)-1H-pyrazol-3-yl)amino)-1,3-dihydro-2H-benzo[d]imidazol-2-one] |  | 79% |  |  | 7% |

Next, values leading:

| pIC50 (TNIK [1]) | inhibition at 1 µM (TNIK [1]) | IC50 (SW620 cells) | IC50 (SW480 cells) | activity at 1 µM (TNIK [2]) | Structure (SMILES) |
| --- | --- | --- | --- | --- | --- |
| 8.15 | 90% |  |  |  | O=C1COc2cc(Nc3cc(-c4ccc(-n5cccn5)cc4)[nH]n3)ccc2N1 [Compound 13, 7-((5-(4-(1H-pyrazol-1-yl)phenyl)-1H-pyrazol-3-yl)amino)-2H-benzo[b][1,4]oxazin-3(4H)-one] |
| 9.00 | 88% |  |  |  | O=C1Cc2cc(Nc3cc(-c4ccc(O)c(F)c4)[nH]n3)ccc2N1 [Compound 8, 5-((5-(3-fluoro-4-hydroxyphenyl)-1H-pyrazol-3-yl)amino)indolin-2-one] |
| 9.00 |  |  |  |  | O=C1CCc2cc(Nc3cc(-c4ccc(-n5cccn5)cc4)[nH]n3)ccc2N1 [Compound 7, 6-((5-(4-(1H-pyrazol-1-yl)phenyl)-1H-pyrazol-3-yl)amino)-3,4-dihydroquinolin-2(1H)-one] |
| 7.54 | 94% |  |  |  | Oc1ccc(-c2cc(Nc3ccc4[nH]ncc4c3)n[nH]2)cc1 [Compound 11, 4-(3-((1H-indazol-5-yl)amino)-1H-pyrazol-5-yl)phenol] |
| 9.00 | 98% |  |  |  | O=C1CCc2cc(Nc3cc(-c4ccc(-n5ccnc5)cc4)[nH]n3)ccc2N1 [Compound 9, 6-((5-(4-(1H-imidazol-1-yl)phenyl)-1H-pyrazol-3-yl)amino)-3,4-dihydroquinolin-2(1H)-one] |
| 7.35 | 93% | 13 µM |  |  | Oc1ccc(-c2cc(Nc3ccc4[nH]ncc4c3)n[nH]2)cc1F [Compound 12, 4-(3-((1H-indazol-5-yl)amino)-1H-pyrazol-5-yl)-2-fluorophenol] |
